Key:
[1] = Pharmacokinetic evaluation, single dosing (oral and intravenous) in rats; assay type: in vivo, male Sprague-Dawley rats; set-up: unit not given here; conditions: rat, plasma
Description: Pharmacokinetic profile for test compound was measured by single dosing in male Sprague-Dawley rats. Animal weights were typically over 200 grams, and animals were allowed to acclimate to their new environment for at least 3 days prior to the initiation of any studies. One set of animals was dosed intravenous with test compound, 2 mg/kg in 20% PEG400, 10% HS-15 Solutol, 70% 50 mM citrate buffer (pH 4.0). Intravenous dosing solution concentration was 1.0 mg/mL. Time of blood sampling was 5 minutes, 15 minutes, 30 minutes, 1 hour, 2 hours, 4 hours, 8 hours, and 24 hours following intravenous dosing. Another set of animals was dosed orally with test compound, 30 mg/kg in 20% PEG400, 10% HS-15 Solutol, 70% 50 mM citrate buffer (pH 4.0). Oral dosing solution concentration was 3.0 mg/mL. Time of blood sampling was 15 minutes, 30 minutes, 1 hour, 2 hours, 4 hours, 8 hours, and 24 hours following oral dosing. Blood samples (˜0.2 mL/sample) were collected via jugular vein and placed in tubes containing Heparin-Na. The blood samples in tubes were mixed and then placed on wet ice prior to centrifugation for plasma. The blood samples were centrifuged at 4000 g for 5 minutes at 4° C. to obtain plasma. The obtained plasma was separated and stored frozen at approximately −80° C.
All the plasma samples were analyzed using a Shimadzu (DGU-405) HPLC with an API 6500+MS/MS system following the manufacturer's instructions. All the analytes were detected with positive-mode electrospray ionization (ES+). A standard curve for each test compound was generated and used to measure test compound concentrations in the rat plasma samples. Based on the time course sampling, an area under the curve (AUC) was calculated for the oral group and intravenous group. The percentage of rat bioavailability is calculated based on the equation shown below.
where F is bioavailability, AUCPO is area under curve of oral dosing, AUCIV is area under curve of intravenous dosing, DoseIV is the intravenous dose and DosePO is the oral dose. The oral dosing for the experiments presented in Table 5 was performed at 10 mg/kg unless noted otherwise.

[2] = molecular target: KRAS (G12D)/CRAF (Homo sapiens (Human), UniProt P01116, G12D); experiment: TR-FRET biochemical KRAS:CRAF protein:protein interaction assay, KRAS (G12D); assay type: binding; conditions: GMPPNP loaded Biotin-KRAS (G12D), FLAG CRAF RBD; read-out: TR-Fret_PPI KRAS (G12D)/CRAF IC50
How it was run: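 Compound (10-point 3-fold series, 1% DMSO final) preincubated 30 min at room temperature with 20 nM biotin-KRAS mutant loaded with GMPPNP, in Hepes pH7.3 buffer with 5 mM MgCl2 and 10 uM GMP-PNP. Then 100 nM FLAG-CRAF RBD for 150 min, 1 nM Tb-anti-FLAG/5 nM SA-XL665 for 90 min; IC50 from normalized 665/620 ratio, 4-parameter fit.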

Chain of KRAS (G12D)/CRAF (P01116-2 other isoform, or with tags, fused parts or gaps G12D): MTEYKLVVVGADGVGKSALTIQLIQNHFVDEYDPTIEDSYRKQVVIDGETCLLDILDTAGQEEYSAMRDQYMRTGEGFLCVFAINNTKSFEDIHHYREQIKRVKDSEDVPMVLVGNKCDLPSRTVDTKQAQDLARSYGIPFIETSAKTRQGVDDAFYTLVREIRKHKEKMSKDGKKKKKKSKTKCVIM

## [2H]C([2H])(Oc1nc(N2CCCC[C@H]3[C@H](F)[C@H]32)c2cnc(-c3cc(N)cc4ccc(F)c(C#C)c34)c(F)c2n1)[C@@]12CCCN1C[C@H](F)C2 [Example 82, 5-Ethynyl-6-fluoro-4-(8-fluoro-4-((1S,7R,8S)-8-fluoro-2-azabicyclo[5.1.0]octan-2-yl)-2-(((2R,7aS)-2-fluorotetrahydro-1H-pyrrolizin-7a(5H)-yl)methoxy-d2)pyrido[4,3-d]pyrimidin-7-yl)naphthalen-2-amine]
[1]
  IV (dose 2 mg/kg) (AUC/D) (h*mg/mL): 490
[1]; oral
  PO (dose 10 mg/kg) (AUC/D) (h*mg/mL): 115
[2]
  IC50: 8.11 nM

## [2H]C([2H])(Oc1nc(N2CCOC[C@H]3[C@H](F)[C@H]32)c2cnc(-c3cc(N)cc4ccc(F)c(C#C)c34)c(F)c2n1)[C@@]12CCCN1C[C@H](F)C2 [Example 87, 5-Ethynyl-6-fluoro-4-(8-fluoro-4-((1S,7S,8S)-8-fluoro-5-oxa-2-azabicyclo[5.1.0]octan-2-yl)-2-(((2R,7aS)-2-fluorotetrahydro-1H-pyrrolizin-7a(5H)-yl)methoxy-d2)pyrido[4,3-d]pyrimidin-7-yl)naphthalen-2-amine]
[1]
  IV (dose 2 mg/kg) (AUC/D) (h*mg/mL): 494
[1]; oral, dose 30 mg/kg
  PO (AUC/D) (h*mg/mL), dose 30 mg/kg: 122
[2]
  IC50: 9.92 nM

## [2H]C([2H])(Oc1nc(N2CCOC[C@H]3[C@H](F)[C@H]32)c2cnc(-c3cc(N)cc4cc(F)c(F)c(C#C)c34)c(F)c2n1)[C@@]12CCCN1C[C@H](F)C2 [Example 28, 5-Ethynyl-6,7-difluoro-4-(8-fluoro-4-((1S,7S,8S)-8-fluoro-5-oxa-2-azabicyclo[5.1.0]octan-2-yl)-2-(((2R,7aS)-2-fluorotetrahydro-1H-pyrrolizin-7a(5H)-yl)methoxy-d2)pyrido[4,3-d]pyrimidin-7-yl)naphthalen-2-amine]
[1]
  IV (dose 2 mg/kg) (AUC/D) (h*mg/mL): 993
[1]; oral
  PO (dose 10 mg/kg) (AUC/D) (h*mg/mL): 141
[2]
  IC50: 11.6 nM

## [2H]C([2H])(Oc1nc(N2CCCC[C@H]3[C@H](F)[C@H]32)c2cnc(-c3cc(N)cc4cc(F)c(F)c(C#C)c34)c(F)c2n1)[C@@]12CCCN1C[C@H](F)C2 [Example 16, 5-Ethynyl-6,7-difluoro-4-(8-fluoro-4-((1S,7R,8S)-8-fluoro-2-azabicyclo[5.1.0]octan-2-yl)-2-(((2R,7aS)-2-fluorotetrahydro-1H-pyrrolizin-7a(5H)-yl)methoxy-d2)pyrido[4,3-d]pyrimidin-7-yl)naphthalen-2-amine]
[1]
  IV (dose 2 mg/kg) (AUC/D) (h*mg/mL): 718
[1]; oral
  PO (dose 10 mg/kg) (AUC/D) (h*mg/mL): 75
[2]
  IC50: 9.98 nM

Reference: US20250282799A1, “SUBSTITUTED PYRIDO[4,3-d]PYRIMIDINES AS KRAS MODULATORS” (Alterome Therapeutics, Inc., priority 2023, published 2025)
